Laboratory results from ChEMBL document CHEMBL1201862, “PubChem BioAssay data set” (2004).
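1) Cells in 96-well plates. 2) Compound, 48 h, 5 concentrations. 3) Linear interpolation between surrounding doses. 4) Unreached endpoint = highest concentration. At the GI50, growth is halved.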 Active and inactive are the calls of the source. Rule as the data show it: active = GI50 up to about 1.1 µM and inactive = higher.

Experiments:
Experiment in all cases: growth of human tumour cells (NCI), 48 h
786-0 = test system: 786-0
A498 = test system: A498
A549 = test system: A549
ACHN = test system: ACHN
CAKI-1 = test system: CAKI-1
COLO 205 = test system: COLO 205
DLD-1 = test system: DLD-1
DMS-114 = test system: DMS-114
DMS-273 = test system: DMS-273
EKVX = test system: EKVX
HCC 2998 = test system: HCC 2998
HCT-116 = test system: HCT-116
HCT-15 = test system: HCT-15
HOP-18 = test system: HOP-18
HOP-62 = test system: HOP-62
HOP-92 = test system: HOP-92
HT-29 = test system: HT-29
IGROV-1 = test system: IGROV-1
K562 = test system: K562
KM-20L2 = test system: KM-20L2
KM12 = test system: KM12
LXFL 529 = test system: LXFL 529
M14 = test system: M14
M19-MEL = test system: M19-MEL
MOLT-4 = test system: MOLT-4
Malme-3M = test system: Malme-3M
NCI-H226 = test system: NCI-H226
NCI-H23 = test system: NCI-H23
NCI-H460 = test system: NCI-H460
NCI-H522 = test system: NCI-H522
OVCAR-3 = test system: OVCAR-3
OVCAR-4 = test system: OVCAR-4
OVCAR-5 = test system: OVCAR-5
OVCAR-8 = test system: OVCAR-8
RPMI-8226 = test system: RPMI-8226
RXF 393 = test system: RXF 393
RXF 631 = test system: RXF 631
SF-268 = test system: SF-268
SF-295 = test system: SF-295
SF-539 = test system: SF-539
SK-MEL-28 = test system: SK-MEL-28
SK-MEL-2 = test system: SK-MEL-2
SK-MEL-5 = test system: SK-MEL-5
SK-OV-3 = test system: SK-OV-3
SN12C = test system: SN12C
SNB-19 = test system: SNB-19
SNB-75 = test system: SNB-75
SNB-78 = test system: SNB-78
SR = test system: SR
SW-620 = test system: SW-620
TK-10 = test system: TK-10
U-251 = test system: U-251
UACC-257 = test system: UACC-257
UACC-62 = test system: UACC-62
UO-31 = test system: UO-31
XF498 = test system: XF498
CCRF-CEM = test system: CCRF-CEM
HL-60 = test system: HL-60
LOX IMVI = test system: LOX IMVI

Measured: GI50

CCCCNC(=NC#N)NCCCC
62.4 µM: HCT-15
inactive: 786-0 49.5 µM | A498 > 100 µM | A549 > 100 µM | ACHN > 100 µM | CAKI-1 > 100 µM | COLO 205 38.2 µM | DLD-1 > 100 µM | DMS-114 55.6 µM | DMS-273 > 100 µM | EKVX > 100 µM | HCC 2998 > 100 µM | HCT-116 > 100 µM | HOP-18 > 100 µM | HOP-62 > 100 µM | HOP-92 > 100 µM | HT-29 > 100 µM | IGROV-1 > 100 µM | K562 > 100 µM | KM-20L2 > 100 µM | KM12 > 100 µM | LXFL 529 > 100 µM | M14 > 100 µM | M19-MEL 83.4 µM | MOLT-4 > 100 µM | Malme-3M > 100 µM | NCI-H226 > 100 µM | NCI-H23 > 100 µM | NCI-H460 > 100 µM | NCI-H522 > 100 µM | OVCAR-3 > 100 µM | OVCAR-4 > 100 µM | OVCAR-5 > 100 µM | OVCAR-8 > 100 µM | RPMI-8226 > 100 µM | RXF 393 34.5 µM | RXF 631 > 100 µM | SF-268 > 100 µM | SF-295 > 100 µM | SF-539 > 100 µM | SK-MEL-28 > 100 µM | SK-MEL-2 > 100 µM | SK-MEL-5 > 100 µM | SK-OV-3 > 100 µM | SN12C > 100 µM | SNB-19 > 100 µM | SNB-75 > 100 µM | SNB-78 > 100 µM | SR 78.7 µM | SW-620 21.3 µM | TK-10 > 100 µM | U-251 99.5 µM | UACC-257 > 100 µM | UACC-62 > 100 µM | UO-31 > 100 µM | XF498 > 100 µM

COc1ccc(C2CC(C)=Nc3c(O)nc(S)nc3N2)cc1 (configuration not stated)
16.3 µM: HCT-15
inactive: 786-0 17.1 µM | A498 19.2 µM | A549 16.9 µM | ACHN 18.7 µM | CAKI-1 27.6 µM | CCRF-CEM 24.2 µM | COLO 205 18.6 µM | DMS-114 21 µM | DMS-273 16.7 µM | EKVX 22.1 µM | HCC 2998 16.7 µM | HCT-116 16.5 µM | HL-60 17.7 µM | HOP-18 62.7 µM | HOP-62 25.4 µM | HOP-92 > 100 µM | HT-29 28.5 µM | IGROV-1 18.8 µM | K562 16.6 µM | KM-20L2 16.7 µM | KM12 17.4 µM | LOX IMVI 17.4 µM | LXFL 529 16.6 µM | M14 19.6 µM | M19-MEL 16.9 µM | MOLT-4 23.1 µM | Malme-3M > 100 µM | NCI-H226 17.2 µM | NCI-H23 30.5 µM | NCI-H460 16.6 µM | NCI-H522 16.3 µM | OVCAR-3 22.4 µM | OVCAR-5 23.4 µM | OVCAR-8 20 µM | RPMI-8226 22.3 µM | RXF 393 18.8 µM | RXF 631 25.6 µM | SF-268 37.7 µM | SF-295 22 µM | SF-539 24.5 µM | SK-MEL-28 27 µM | SK-MEL-2 63.8 µM | SK-MEL-5 16.7 µM | SK-OV-3 18.1 µM | SN12C 19.4 µM | SNB-19 18.7 µM | SNB-75 17.6 µM | SNB-78 46.7 µM | SR 25.6 µM | SW-620 5.27 µM | TK-10 20.8 µM | U-251 17.3 µM | UACC-257 16.8 µM | UACC-62 17.4 µM | UO-31 17.9 µM | XF498 24.8 µM

CCOC(=O)C1C=C2O[C@@H]3OC4(CCCCC4)O[C@@H]3C2[C@H]2C(=O)C=CC(=O)[C@@]12C(=O)OC (some centres not stated)
inactive: 786-0 7.21 µM | A498 18.3 µM | A549 14.5 µM | ACHN 18.1 µM | CAKI-1 16 µM | CCRF-CEM 2.84 µM | COLO 205 8.61 µM | DLD-1 16.6 µM | DMS-114 4.75 µM | DMS-273 8.65 µM | EKVX 16.6 µM | HCC 2998 14.3 µM | HCT-116 6.61 µM | HL-60 2.25 µM | HOP-18 15.7 µM | HOP-62 20 µM | HOP-92 12.2 µM | HT-29 6.9 µM | IGROV-1 10.3 µM | K562 5.45 µM | KM-20L2 14.5 µM | KM12 12.3 µM | LOX IMVI 15.5 µM | LXFL 529 10.7 µM | M14 15.9 µM | M19-MEL 16 µM | MOLT-4 2.7 µM | Malme-3M 17.2 µM | NCI-H226 20.6 µM | NCI-H23 16.3 µM | NCI-H460 14.6 µM | NCI-H522 3.98 µM | OVCAR-3 7.89 µM | OVCAR-4 9.31 µM | OVCAR-5 17.1 µM | OVCAR-8 6.41 µM | RPMI-8226 2.84 µM | RXF 393 1.66 µM | RXF 631 16.3 µM | SF-268 12.4 µM | SF-295 18.2 µM | SF-539 3.15 µM | SK-MEL-28 15.6 µM | SK-MEL-2 16.1 µM | SK-MEL-5 19.2 µM | SK-OV-3 18.2 µM | SN12C 16.7 µM | SNB-19 8.38 µM | SNB-75 19.4 µM | SNB-78 6.49 µM | SR 2.71 µM | SW-620 12.8 µM | TK-10 13.6 µM | U-251 8.69 µM | UACC-257 16.8 µM | UACC-62 16.8 µM | UO-31 16.3 µM | XF498 7.29 µM
9.4 µM: HCT-15
